Data from ChEMBL document CHEMBL3272044, “Cholinergic compounds. 9. Cyclohexane analogues of deoxamuscarine and derivatives” (J Med Chem, 1977).

Organism: Cavia porcellus
Experiment: Activity at muscarinic receptor in guinea pig terminal ileum assessed as compound required for 50% effect relative to acetylcholine
Type: tissue-based

Structure (SMILES)	Ratio
C[N+](C)(C)C[C@H]1CCC(=O)C1	50
C[C@@H]1C[C@H](C[N+](C)(C)C)C[C@H]1O	9.8
C[N+](C)(C)C[C@H]1CC[C@@H](O)C1	3590
C[N+](C)(C)C[C@H]1CCC[C@@H](O)C1 (relative stereo)	> 10000
C[N+](C)(C)C[C@H]1CCC[C@H](O)C1 (relative stereo)	2900
C[C@H]1C[C@H](C[N+](C)(C)C)C[C@H]1O	454
C[C@H]1C[C@H](C[N+](C)(C)C)C[C@@H]1O	100
C[N+](C)(C)C[C@@H]1CC=CCC1	269
C[N+](C)(C)C[C@H]1CCCC(=O)C1	507
C[N+](C)(C)CC1CCCCC1	203
CC1C[C@H](C[N+](C)(C)C)CC1=O (some centres not stated)	0.5
CC1=CC[C@@H](C[N+](C)(C)C)C1	30
C[C@@H]1C[C@H](C[N+](C)(C)C)C[C@@H]1O	500
C[N+](C)(C)C[C@H]1CC[C@H](O)C1	221
C[C@H]1CC[C@@H](C[N+](C)(C)C)C1	100
C[N+](C)(C)CC1CCCC1	16
C[N+](C)(C)CC1CC=CC1	11
